Source: DBAASP
Converted amounts (≈) assume the structure as drawn.

Legend:
Assay in all cases: ≥ marks a high value that may be exact or a test limit, other limits are often not marked, values filed in µg/mL are converted to µM
[1] = test system: Micrococcus luteus ATCC 9341
Bacillus subtilis = test system: Bacillus subtilis
Escherichia coli = test system: Escherichia coli
[2] = test system: Escherichia coli ATCC 25922
[3] = test system: Staphylococcus aureus ATCC 25923
Acinetobacter baumannii = test system: Acinetobacter baumannii
[4] = test system: Pseudomonas aeruginosa ATCC 9027
[5] = test system: Klebsiella pneumoniae ATCC 700603
Escherichia coli UB1005 = test system: Escherichia coli UB1005
Staphylococcus aureus = test system: Staphylococcus aureus
[6] = test system: Staphylococcus epidermidis ATCC 12228
Pseudomonas aeruginosa = test system: Pseudomonas aeruginosa
[7] = test system: Salmonella enterica subsp. enterica serovar Typhimurium C77-31
[8] = test system: Staphylococcus aureus ATCC 29213
[9] = test system: Candida albicans ATCC 2002
[10] = test system: Staphylococcus aureus ATCC 2592
[11] = test system: Staphylococcus aureus ATCC 33591
[12] = test system: Bacillus subtilis ATCC 6633

CC[C@H](C)[C@H](N)C(=O)N[C@@H](CC(C)C)C(=O)N1CCC[C@H]1C(=O)N[C@@H](Cc1c[nH]c2ccccc12)C(=O)N[C@@H](CC(=O)O)C(=O)N[C@@H](Cc1c[nH]c2ccccc12)C(=O)N1CCC[C@H]1C(=O)N[C@@H](Cc1c[nH]c2ccccc12)C(=O)N[C@@H](Cc1c[nH]c2ccccc12)C(=O)N1CCC[C@H]1C(=O)N[C@@H](Cc1c[nH]c2ccccc12)C(=O)N[C@@H](CC(=O)O)C(=O)N[C@@H](CC(=O)O)C(N)=O [ILPWDWPWWPWDD] gave an MIC [1] of at least 100 µM.

For CC[C@H](C)[C@H](N)C(=O)N[C@@H](CC(N)=O)C(=O)N[C@@H](Cc1c[nH]c2ccccc12)C(=O)N[C@@H](CO)C(=O)N[C@@H](CCCCN)C(=O)N[C@H](C(=O)N[C@@H](Cc1ccccc1)C(=O)N[C@@H](CCC(=O)O)C(=O)N[C@@H](CCCCN)C(=O)N[C@H](C(=O)N[C@@H](CCCCN)C(=O)N[C@@H](CC(N)=O)C(=O)N[C@@H](CC(C)C)C(=O)N[C@H](C(N)=O)C(C)C)C(C)C)[C@@H](C)CC [INWSKIFEKVKNLV], the MIC (Bacillus subtilis) was 17 µM (≈ 29.2 µg/mL) and the MIC (Escherichia coli) was 12.5 µM (≈ 21.5 µg/mL).

Work on NC(=O)[C@H](CCCN=C(N)N)NC(=O)[C@H](CCCN=C(N)N)NC(=O)[C@H](Cc1c[nH]c2ccccc12)NC(=O)[C@@H]1CCCN1C(=O)[C@H](Cc1c[nH]c2ccccc12)NC(=O)[C@H](Cc1c[nH]c2ccccc12)NC(=O)[C@@H]1CCCN1C(=O)[C@@H](N)Cc1c[nH]c2ccccc12 [WPWWPWRR] yielded an MIC [1] of 1.6 µM (≈ 2.03 µg/mL).

CC[C@H](C)[C@H](NC(=O)[C@H](C)N)C(=O)N[C@@H](CC(C)C)C(=O)N[C@@H](CCCN=C(N)N)C(=O)N[C@@H](CCCCN)C(=O)N[C@@H](C)C(=O)N[C@H](C(=O)N[C@@H](CCCN=C(N)N)C(=O)N[C@@H](CCCN=C(N)N)C(=O)N[C@@H](CC(C)C)C(=O)N[C@H](C(=O)N[C@@H](CCCCN)C(=O)N[C@@H](CC(C)C)C(=O)N[C@H](C(=O)N[C@H](C(N)=O)C(C)C)[C@@H](C)CC)C(C)C)[C@@H](C)O [AILRKATRRLVKLIV] was tested, and the MIC [2] was 20 µM (≈ 35 µg/mL), the MIC [3] was over 25 µM and the MIC (Acinetobacter baumannii) was 6.25 µM (≈ 10.9 µg/mL). It also gave an MIC [4] of 20 µM (≈ 35 µg/mL) and an MIC [5] of over 25 µM.

With CC[C@H](C)[C@H](NC(=O)[C@H](CO)NC(=O)[C@H](C)NC(=O)[C@@H](NC(=O)[C@H](CCCCN)NC(=O)[C@H](CCCCN)NC(=O)[C@H](Cc1c[nH]c2ccccc12)NC(=O)[C@H](CC(N)=O)NC(=O)[C@@H](N)CO)[C@@H](C)CC)C(=O)NCC(=O)N[C@@H](CCCCN)C(=O)N[C@@H](CCC(=O)O)C(=O)N[C@H](C(=O)N[C@@H](CC(C)C)C(=O)N[C@@H](CCCCN)C(=O)N[C@@H](C)C(=O)N[C@@H](CC(C)C)C(N)=O)C(C)C [SNWKKIASIGKEVLKAL] the MIC (Bacillus subtilis) was 30 µM (≈ 56.5 µg/mL) and the MIC (Escherichia coli) was 25 µM (≈ 47.1 µg/mL).

Work on CC[C@H](C)[C@@H]1NC(=O)[C@@H]2CSSC[C@@H]3NC(=O)[C@H](Cc4ccccc4)NC(=O)[C@H](CO)NC(=O)[C@H](CO)NC(=O)[C@H](C(C)C)NC(=O)[C@H](C(C)C)NC(=O)[C@@H]4CCCN4C(=O)[C@@H](NC(=O)[C@H](CCSC)NC(=O)[C@H](Cc4ccc(O)cc4)NC(=O)[C@H](CCC(=O)O)NC(=O)[C@H](CO)NC(=O)[C@H](CCCCN)NC(=O)[C@H](CC(N)=O)NC(=O)[C@H](CC(C)C)NC(=O)[C@@H](NC(=O)[C@H](CCC(=O)O)NC(=O)[C@H](CCCCN)NC(=O)[C@@H](NC(=O)[C@H](CCCCN)NC(=O)[C@H](CC(=O)O)NC(=O)[C@@H](NC(=O)[C@H](C)NC(=O)[C@H](CCC(N)=O)NC(=O)[C@H](CC(N)=O)NC(=O)[C@H](CC(C)C)NC(=O)[C@H](CCCCN)NC(=O)[C@H](CCCCN)NC(=O)[C@H](CCCCN)NC(=O)[C@H](CC(C)C)NC(=O)[C@H](CCCCN)NC(=O)[C@H](CCC(N)=O)NC(=O)CNC(=O)[C@@H](NC(=O)[C@@H](NC(=O)[C@H](CO)NC(=O)[C@@H](N)CCCCN)[C@@H](C)O)C(C)C)C(C)C)C(C)C)C(C)C)CSSC[C@H](NC(=O)[C@H](CCC(N)=O)NC(=O)CNC(=O)[C@H](CO)NC(=O)[C@H](CCCCN)NC(=O)CNC(=O)[C@H](CC(C)C)NC(=O)[C@H](CCCN=C(N)N)NC(=O)[C@H](C)NC(=O)[C@H](CSSC[C@@H](C(=O)O)NC1=O)NC(=O)[C@H](Cc1cnc[nH]1)NC(=O)[C@H](CCC(N)=O)NC(=O)[C@H](CCCCN)NC3=O)C(=O)N[C@@H](CC(=O)O)C(=O)N[C@@H](CC(C)C)C(=O)N[C@@H](CC(C)C)C(=O)N[C@@H](CCC(=O)O)C(=O)N2 [KSTVGQKLKKKLNQAVDKVKEVLNKSEYMCPVVSSFCKQHCARLGKSGQCDLLECIC] yielded an MIC (Bacillus subtilis) of 0.5 µM (≈ 3.17 µg/mL).

With CC(C)C[C@H](NC(=O)[C@H](CCCN=C(N)N)NC(=O)[C@H](Cc1c[nH]c2ccccc12)NC(=O)[C@H](CCCN=C(N)N)NC(=O)[C@@H](NC(=O)[C@H](CCCN=C(N)N)NC(=O)[C@H](Cc1c[nH]c2ccccc12)NC(=O)[C@H](CCCN=C(N)N)NC(=O)[C@H](CC(C)C)NC(=O)[C@H](CCCN=C(N)N)NC(=O)[C@@H](N)Cc1c[nH]c2ccccc12)[C@@H](C)O)C(=O)N[C@@H](CCCN=C(N)N)C(N)=O [WRLRWRTRWRLR] the MIC (Escherichia coli UB1005) was 4 µM (≈ 7.36 µg/mL), the MIC (Staphylococcus aureus) was 2 µM (≈ 3.68 µg/mL) and the MIC [6] was 2 µM (≈ 3.68 µg/mL). It also gave an MIC [2] of 4 µM (≈ 7.36 µg/mL), an MIC [3] of 2 µM (≈ 3.68 µg/mL) and an MIC (Pseudomonas aeruginosa) of 16 µM (≈ 29.4 µg/mL). It also gave an MIC (Acinetobacter baumannii) of 4 µM (≈ 7.36 µg/mL), an MIC [7] of 4 µM (≈ 7.36 µg/mL) and an MIC (Escherichia coli) of 2 µM (≈ 3.68 µg/mL). It also gave an MIC [8] of 2 µM (≈ 3.68 µg/mL).

CC[C@H](C)[C@H](NC(=O)CNC(=O)CNC(=O)[C@H](C)NC(=O)[C@H](CCCCN)NC(=O)[C@H](C)N)C(=O)NCC(=O)NCC(=O)N[C@@H](Cc1cnc[nH]1)C(=O)N[C@H](C(=O)N[C@H](C(=O)NCC(=O)N[C@@H](CCC(N)=O)C(=O)N[C@H](C(=O)N[C@H](C(=O)NCC(=O)N[C@H](C(=O)N[C@@H](CCCN=C(N)N)C(=O)N[C@H](C(=O)N[C@@H](CCCN=C(N)N)C(=O)NCC(=O)N[C@@H](CC(C)C)C(=O)NCC(=O)NCC(=O)N[C@@H](CC(N)=O)C(=O)N[C@H](C(=O)O)C(C)C)[C@@H](C)CC)C(C)C)C(C)C)[C@@H](C)CC)[C@@H](C)CC)C(C)C [AKAGGIGGHVIGQIVGVRIRGLGGNV] gave an MIC [9] of 20.4 µM (≈ 50 µg/mL), an MIC [10] of 2.57 µM (≈ 6.3 µg/mL) and an MIC [2] of 20.4 µM (≈ 50 µg/mL).

For CC[C@H](C)[C@H](NC(=O)[C@@H](N)CCCCN)C(=O)N[C@@H](Cc1c[nH]c2ccccc12)C(=O)N[C@@H](Cc1ccccc1)C(=O)N[C@@H](CCC(N)=O)C(=O)N[C@@H](CC(N)=O)C(=O)N[C@@H](CCCCN)C(=O)N[C@@H](CCCCN)C(=O)N[C@@H](CCSC)C(=O)N[C@@H](CCCCN)C(=O)N[C@@H](Cc1c[nH]c2ccccc12)C(=O)N[C@@H](CCCCN)C(=O)N[C@@H](CCCCN)C(N)=O [KIWFQNKKMKWKK], the MIC [2] was 256 µM (≈ 459 µg/mL) and the MIC [11] was at least 256 µM.

Compound CC[C@H](C)[C@H](NC(=O)[C@H](CCCCN)NC(=O)[C@@H]1CCCN1C(=O)[C@H](CC(C)C)NC(=O)[C@@H](NC(=O)[C@H](CO)NC(=O)CNC(=O)[C@H](CC(C)C)NC(=O)[C@H](C)NC(=O)CNC(=O)[C@H](CC(C)C)NC(=O)[C@@H](NC(=O)[C@H](CC(C)C)NC(=O)[C@@H]1CCCN1C(=O)[C@H](Cc1ccccc1)NC(=O)[C@@H](N)Cc1ccccc1)C(C)C)[C@@H](C)CC)C(=O)N[C@@H](Cc1ccccc1)C(N)=O [FFPLVLGALGSILPKIF] has an MIC [10] of 10.9 µM (≈ 20 µg/mL) and an MIC [12] of 5.46 µM (≈ 9.99 µg/mL).

In the case of CC(C)[C@H](NC(=O)[C@H](CCCN=C(N)N)NC(=O)[C@H](Cc1c[nH]c2ccccc12)NC(=O)[C@H](CCCN=C(N)N)NC(=O)[C@@H](NC(=O)[C@H](CCCCN)NC(=O)[C@H](Cc1c[nH]c2ccccc12)NC(=O)[C@H](CCCN=C(N)N)NC(=O)[C@@H](NC(=O)[C@H](CCCN=C(N)N)NC(=O)[C@@H](N)Cc1c[nH]c2ccccc12)C(C)C)C(C)C)C(=O)N[C@@H](CCCCN)C(N)=O [WRVRWKVRWRVK], the MIC (Escherichia coli UB1005) is reported as 2 µM (≈ 3.51 µg/mL), the MIC (Staphylococcus aureus) is reported as 2 µM (≈ 3.51 µg/mL) and the MIC [6] is reported as 2 µM (≈ 3.51 µg/mL). The MIC [2] was 4 µM (≈ 7.02 µg/mL), the MIC [3] was 2 µM (≈ 3.51 µg/mL) and the MIC (Pseudomonas aeruginosa) was 4 µM (≈ 7.02 µg/mL). For the same compound, the MIC (Acinetobacter baumannii) was 2.83 µM (≈ 4.96 µg/mL), the MIC [7] was 2 µM (≈ 3.51 µg/mL) and the MIC (Escherichia coli) was 1 µM (≈ 1.75 µg/mL). It also gave an MIC [8] of 1 µM (≈ 1.75 µg/mL).

CC[C@H](C)[C@H](NC(=O)[C@H](CCCN=C(N)N)NC(=O)[C@@H](NC(=O)[C@@H]1CCCN1C(=O)[C@@H](NC(=O)[C@@H](NC(=O)[C@H](CCC(N)=O)NC(=O)[C@@H]1CCCN1C(=O)[C@@H](NC(=O)[C@@H](NC(=O)[C@H](Cc1cnc[nH]1)NC(=O)[C@@H]1CCCN1C(=O)[C@@H]1CCCN1C(=O)[C@@H](NC(=O)CNC(=O)CNC(=O)[C@H](C)NC(=O)[C@H](CCCCN)NC(=O)[C@H](C)N)[C@@H](C)CC)C(C)C)[C@@H](C)CC)[C@@H](C)CC)C(C)C)C(C)C)C(=O)N[C@@H](CCCN=C(N)N)C(=O)N1CCC[C@H]1C(=O)N[C@@H](CC(C)C)C(=O)N[C@@H](CS)C(=O)NCC(=O)N[C@@H](CC(N)=O)C(=O)N[C@H](C(=O)O)C(C)C [AKAGGIPPHVIPQIVPVRIRPLCGNV] was tested, and the MIC [9] was 9.25 µM (≈ 25 µg/mL), the MIC [10] was 4.66 µM (≈ 12.6 µg/mL) and the MIC [2] was 18.5 µM (≈ 50 µg/mL).
